# Reference: paper PMC9667936, “Functional mapping of the 14-3-3 hub protein as a guide to design 14-3-3 molecular glues” (Chemical Science, 2022)
# Where a SMILES comes first, the peptide text is derived from it. [ ]: non-standard residue; d: D form. The star is where a group is joined. ξ: configuration not given here. FITC = O=C1OC2(c3ccc(O)cc3Oc3cc(O)ccc32)c2ccc(NC(=S)*)cc21; Phe(4-NO2) = N[C@@H](Cc1ccc([N+](=O)[O-])cc1)C(=O)O; ξAla(4-thiazolyl) = NC(Cc1cscn1)C(=O)O; pS = N[C@@H](COP(=O)(O)O)C(=O)O; β3hS = N[C@@H](CO)CC(=O)O; Nva = CCC[C@H](N)C(=O)O; AEA = NCCOCC(=O)O; βAla = NCCC(=O)O
# Target: T1, 14-3-3γ (Homo sapiens, UniProt P61981)
# T1 construct: made in house; host or cells: E. coli NiCo21 (DE3)
# T1 sequence (P61981 1-247): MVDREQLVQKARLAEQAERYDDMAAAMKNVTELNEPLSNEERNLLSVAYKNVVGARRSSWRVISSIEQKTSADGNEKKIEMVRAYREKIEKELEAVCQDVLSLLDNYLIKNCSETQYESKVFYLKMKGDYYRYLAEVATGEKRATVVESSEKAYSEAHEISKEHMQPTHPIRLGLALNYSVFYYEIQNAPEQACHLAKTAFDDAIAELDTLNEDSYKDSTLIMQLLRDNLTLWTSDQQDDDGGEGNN
# Test: Fluorescence anisotropy (FA) binary binding study: 14-3-3 titrated to fluorescein-labelled peptide
# Settings: for individual ΔΔG of removed residue / ΔΔG (to previous): FA; for individual ΔΔG of removed residue: ΔG relative to the previously truncated peptide; for fold change in binding affinity on truncation: FA KD relative to the previous (one amino acid longer) peptide
# Protocol: 14-3-3γ protein expression (FP/ITC experiments)
# (§1) A pPROEX HTb expression vector encoding the human 14-3-3 protein gamma (14-3-3γ) with an N-terminal his6-tag was transformed by heat shock into NiCo21 (DE3) competent cells. Single colonies were cultured in 50 mL LB medium (100 µg/mL ampicillin). After overnight incubation at 37 °C, cultures were transferred to 2 L TB media (100 µg/mL ampicillin, 1 mM MgCl2) and incubated at 37 °C until an OD600 nm of 0.8-1.2 was reached. Protein expression was then induced with 0.4 mM isopropyl-β-d-thiogalactoside (IPTG), and cultures were incubated overnight at 18 °C. Cells were harvested by centrifugation (8600 rpm, 20 minutes, 4 °C) and resuspended in lysis buffer (50 mM Hepes, pH 8.0, 300 mM NaCl, 12.5 mM imidazole, 5 mM MgCl2, 2 mM βME) containing cOmplete™ EDTA-free Protease Inhibitor Cocktail tablets (1 tablet/100 ml lysate) and benzonase (1 µl/100 ml). After lysis using a C3 Emulsiflex-C3 homogenizer (Avestin), the cell lysate was cleared by centrifugation (20000 rpm, 30 minutes, 4 °C) and purified using Ni2+-affinity chromatography (Ni-NTA superflow cartridges, Qiagen).
# Typically two 5 mL columns (flow 5 mL/min) were used for a 2 L culture in which the lysate was loaded on the column washed with 10 CV wash buffer (50 mM Hepes, pH 8.0, 300 mM NaCl, 25 mM imidazole, 2 mM βME) and eluted in several fractions (2-4 CV) of elution buffer (50 mM Hepes, pH 8.0, 300 mM NaCl, 250 mM imidazole, 2 mM βME). Fractions containing the 14-3-3 protein were combined and dialyzed into 25 mM HEPES pH 8.0, 100 mM NaCl, 10 mM MgCl2, 500 µM TCEP. Finally, the protein was concentrated to ∼60 mg/mL, analyzed Q-Tof LC/MS, and aliquots were flash-frozen for storage at […]
# as §1, with “sigma truncated after T231 (14-3-3σΔc) and” for “gamma (14-3-3γ)”, “tablet/ 100” for “tablet/100”, “µl/ 100” for “µl/100”, “ml).” for “ml). After lysis using a C3 Emulsiflex-C3 homogenizer (Avestin), the cell lysate was cleared by centrifugation (20000 rpm, 30 minutes, 4 °C) and purified using Ni2+-affinity chromatography (Ni-NTA superflow cartridges, Qiagen).”
# After lysis using a C3 Emulsiflex-C3 homogenizer (Avestin), the cell lysate was cleared by centrifugation (20000 rpm, 30 minutes, 4 °C) and purified using Ni2+-affinity chromatography (Ni-NTA superflow cartridges, Qiagen). Typically two 5 mL columns were used for a 2 L culture in which the lysate was loaded on the column washed with 10 CV wash buffer (50 mM Hepes, pH 8.0, 300 mM NaCl, 25 mM imidazole, 2 mM βME) and eluted with several fractions (2-4 CV) of elution buffer (50 mM Hepes, pH 8.0, 300 mM NaCl, 250 mM imidazole, 2 mM βME). Fractions containing the 14-3-3 protein were combined and dialyzed into 25 mM HEPES pH 8.0, 200 mM NaCl, 10 mM MgCl2, 2 mM βME. In addition, 1 mg TEV was added for each 100 mg purified protein to remove the purification tag. The cleaved sample was then again loaded on a 10 mL Ni-NTA column to separate the cleaved product from the expression tag and residual uncleaved protein. The flowthrough was loaded on a Superdex 75 pg 16/60 size exclusion column (GE Life Sciences) using 25 mM HEPES, 100 mM NaCl, 10 mM MgCl2, 500 μM TCEP (adjusted to pH=8.0) as running buffer. Fractions containing the 14-3-3 protein were pooled and concentrated to ∼60 mg/mL, analyzed Q-Tof LC/MS, and aliquots were flash-frozen for storage at −80 […]
# The peptides 1 and 2a-d were synthesized on 50 µmol scale on a Rink amide MBHA resin […]
# [1] = Table S2, FA KD of peptide divided by KD of previous (one amino acid longer) peptide, mean of n = 3
# [2] = Table S2, KD / KD of previous (one amino acid longer) peptide, replicate 1
# [3] = Table S2, KD / KD of previous (one amino acid longer) peptide, replicate 2
# [4] = Table S2, KD / KD of previous (one amino acid longer) peptide, replicate 3
# [5] = Table S2, calculated from FA KD, mean of n = 3
# [6] = Table S2, from FA KD, replicate 1
# [7] = Table S2, from FA KD, replicate 2
# [8] = Table S2, from FA KD, replicate 3
# [9] = Table S2, ΔG minus ΔG of previous peptide, replicate 1
# [10] = Table S2, ΔG minus ΔG of previous peptide, replicate 2
# [11] = Table S2, ΔG minus ΔG of previous peptide, replicate 3
# [12] = Table S2, ΔG of peptide minus ΔG of previous (one amino acid longer) peptide, mean of n = 3
# [13] = Table S3, FA KD of peptide divided by KD of previous (one amino acid longer) peptide, mean of n = 3
# [14] = Table S3, KD / KD of previous peptide, replicate 1
# [15] = Table S3, KD / KD of previous peptide, replicate 2
# [16] = Table S3, KD / KD of previous peptide, replicate 3
# [17] = Table S3, calculated from FA KD, mean of n = 3
# [18] = Table S3, from FA KD, replicate 1
# [19] = Table S3, from FA KD, replicate 2
# [20] = Table S3, from FA KD, replicate 3
# [21] = Table S3, ΔG minus ΔG of previous peptide, replicate 1
# [22] = Table S3, ΔG minus ΔG of previous peptide, replicate 2
# [23] = Table S3, ΔG minus ΔG of previous peptide, replicate 3
# [24] = Table S3, ΔG of peptide minus ΔG of previous (one amino acid longer) peptide, mean of n = 3
Structure (SMILES),individual ΔΔG of removed residue,Fold change to previous [1],Fold change to previous [2],Fold change to previous [3],Fold change to previous [4],ΔG [5],ΔG [6],ΔG [7],Fold change to previous [13],Fold change to previous [14],Fold change to previous [15],Fold change to previous [16],ΔG [17],ΔG [18],ΔG [19],ΔG [20],ΔΔG (to previous) [21],ΔΔG (to previous) [22],ΔΔG (to previous) [23],ΔΔG (to previous) [24],other results
CCC[C@H](N)C(=O)N[C@@H](Cc1ccc([N+](=O)[O-])cc1)C(=O)NC(Cc1cscn1)C(=O)N[C@@H](COP(=O)(O)O)C(=O)N[C@@H](Cc1ccc([N+](=O)[O-])cc1)C(=O)N[C@@H](CO)CC(=O)NCCC(=O)N[C@@H](Cc1ccc([N+](=O)[O-])cc1)C(=O)N[C@@H](CCCCN)C(=O)N[C@@H](C)C(=O)N[C@@H](CCCCNC(=S)Nc1ccc2c(c1)C(=O)OC21c2ccc(O)cc2Oc2cc(O)ccc21)C(N)=O (stereo partly drawn) [2a] (H-[Nva][Phe(4-NO2)][ξAla(4-thiazolyl)][pS][Phe(4-NO2)][β3hS][βAla][Phe(4-NO2)]KAK(FITC)-NH2),only minor energy contributions,"1,98","1,72","2,56","1,66","-10,13 kcal/mol","-10,29 kcal/mol","-10,00 kcal/mol",–,–,–,–,–,–,–,–,–,–,–,–,"ΔG [8]: -10,11 kcal/mol; ΔΔG (to previous) [9]: 0,32 kcal/mol; ΔΔG (to previous) [10]: 0,56 kcal/mol; ΔΔG (to previous) [11]: 0,30 kcal/mol; ΔΔG (to previous) [12]: 0,39 kcal/mol"
C[C@H](NC(=O)[C@H](CCCCN)NC(=O)[C@H](Cc1ccc([N+](=O)[O-])cc1)NC(=O)CCNC(=O)C[C@H](CO)NC(=O)[C@H](Cc1ccc([N+](=O)[O-])cc1)NC(=O)[C@H](COP(=O)(O)O)NC(=O)C(Cc1cscn1)NC(=O)[C@@H](N)Cc1ccc([N+](=O)[O-])cc1)C(=O)N[C@@H](CCCCNC(=S)Nc1ccc2c(c1)C(=O)OC21c2ccc(O)cc2Oc2cc(O)ccc21)C(N)=O (stereo partly drawn) [2b] (H-[Phe(4-NO2)][ξAla(4-thiazolyl)][pS][Phe(4-NO2)][β3hS][βAla][Phe(4-NO2)]KAK(FITC)-NH2),only minor energy contributions,"2,86","3,64","2,32","2,61","-9,52 kcal/mol","-9,53 kcal/mol","-9,50 kcal/mol",–,–,–,–,–,–,–,–,–,–,–,–,"ΔG [8]: -9,54 kcal/mol; ΔΔG (to previous) [9]: 0,76 kcal/mol; ΔΔG (to previous) [10]: 0,50 kcal/mol; ΔΔG (to previous) [11]: 0,57 kcal/mol; ΔΔG (to previous) [12]: 0,61 kcal/mol"
CCC[C@H](NC(=O)[C@@H](CCCCN)NC(=O)COCCNC(=S)Nc1ccc2c(c1)C(=O)OC21c2ccc(O)cc2Oc2cc(O)ccc21)C(=O)N[C@@H](Cc1ccc([N+](=O)[O-])cc1)C(=O)NC(Cc1cscn1)C(=O)N[C@@H](COP(=O)(O)O)C(=O)N[C@@H](Cc1ccc([N+](=O)[O-])cc1)C(=O)N[C@@H](CO)CC(=O)NCCC(=O)N[C@@H](Cc1ccc([N+](=O)[O-])cc1)C(N)=O (stereo partly drawn) [2e] ({FITC-AEA}-[dK][Nva][Phe(4-NO2)][ξAla(4-thiazolyl)][pS][Phe(4-NO2)][β3hS][βAla][Phe(4-NO2)]-NH2),–,–,–,–,–,–,–,–,"5,55","5,54","7,13","3,98","-9,53 kcal/mol","-9,60 kcal/mol","-9,39 kcal/mol","-9,59 kcal/mol","1,01 kcal/mol","1,16 kcal/mol","0,82 kcal/mol","1,00 kcal/mol",fold change in binding affinity on truncation: five-fold reduction
CCC[C@H](NC(=O)[C@@H](CCCCN)NC(=O)COCCNC(=S)Nc1ccc2c(c1)C(=O)OC21c2ccc(O)cc2Oc2cc(O)ccc21)C(=O)N[C@@H](Cc1ccc([N+](=O)[O-])cc1)C(=O)NC(Cc1cscn1)C(=O)N[C@@H](COP(=O)(O)O)C(=O)N[C@@H](Cc1ccc([N+](=O)[O-])cc1)C(=O)N[C@@H](CO)CC(=O)NCCC(N)=O (stereo partly drawn) [2f] ({FITC-AEA}-[dK][Nva][Phe(4-NO2)][ξAla(4-thiazolyl)][pS][Phe(4-NO2)][β3hS][βAla]-NH2),1.5 kcal/mol,–,–,–,–,–,–,–,"12,39","12,69","11,53","12,93","-8,04 kcal/mol","-8,10 kcal/mol","-7,95 kcal/mol","-8,07 kcal/mol","1,50 kcal/mol","1,45 kcal/mol","1,52 kcal/mol","1,49 kcal/mol",fold change in binding affinity on truncation: 12 fold
CCC[C@H](NC(=O)[C@@H](CCCCN)NC(=O)COCCNC(=S)Nc1ccc2c(c1)C(=O)OC21c2ccc(O)cc2Oc2cc(O)ccc21)C(=O)N[C@@H](Cc1ccc([N+](=O)[O-])cc1)C(=O)NC(Cc1cscn1)C(=O)N[C@@H](COP(=O)(O)O)C(=O)N[C@@H](Cc1ccc([N+](=O)[O-])cc1)C(=O)N[C@@H](CO)CC(N)=O (stereo partly drawn) [2g] ({FITC-AEA}-[dK][Nva][Phe(4-NO2)][ξAla(4-thiazolyl)][pS][Phe(4-NO2)][β3hS]-NH2),0.4 kcal/mol,–,–,–,–,–,–,–,"1,85","1,92","1,84","1,79","-7,67 kcal/mol","-7,71 kcal/mol","-7,59 kcal/mol","-7,73 kcal/mol","0,39 kcal/mol","0,36 kcal/mol","0,34 kcal/mol","0,36 kcal/mol",–
